# Laboratory results taken from patent US10869874B2, “Methods and compositions for topical delivery of prostaglandins to subcutaneous fat” (Topokine Therapeutics, Inc., priority 2013, dated 2020).
# Tests used:
# [1] = skin permeation ex vivo, Franz-type diffusion cell; assay type: in vitro ADME, human; details: free acid recovered in dermis and receptor fluid
# Method: Skin permeation studies were conducted with various formulations of latanoprost, ex vivo, on fresh human skin. Fresh human skin was obtained from live donors undergoing abdominoplasty and mounted on a standard (Franz-type) diffusion cell apparatus. All test articles contained 0.8% (weight/weight) of latanoprost. Each test article (8 mg) was uniformly applied to a skin surface of 0.8 cm^2. All formulations were tested on skin from at least two different donors. Treated skin was left open to the atmosphere to simulate clinical conditions. Receptor fluid flowed continuously over 24 hours and was collected in fractions. The amount of active drug metabolite (latanoprost free acid) in these fractions was determined by Liquid Chromatography/Tandem Mass Spectrometry. The following amounts of drug were recovered from receptor fluid over 24 hours:
# Skin permeation studies were conducted with various formulations of latanoprost 0.5%, ex vivo, on fresh human skin, as described in the foregoing example. All formulations comprised ethanol (70%) and oleic acid (1.5%, 3% or 4.5%) with the remainder essentially as propylene glycol (28.5%, 27% or 25.5%, respectively). All studies were run in duplicate.
# abdominal fat = assay: randomized placebo-controlled trial for reduction of abdominal fat; assay type: in vivo, human; details: compared to vehicle alone
# Text: The following experiment describes a randomized, placebo-controlled, double-blind trial in human subjects to test whether the safety and efficacy of a PFPRA pharmaceutical composition for reduction of abdominal fat. The composition can be, for example, as described in Example 1, wherein the PFPRA is latanoprost. Alternatively, the PFPRA can be tafluprost. Other alternatives within the scope of the invention can also be used. Eligible subjects (for example, n=60) with excess anterior abdominal fat are entered into a randomized double-blind study. […] Subjects are instructed to apply, once a day, a metered dose, for example, of 2 ml over a 200 cm^2 application area on the anterior abdomen. The application area is standardized, for example, by use of a template that is centered on the umbilicus. Serial clinical assessments, subjective patient assessments, photographs, and magnetic resonance imaging (MRI) scans are performed prior to the first dose and then, for example, at 6 and 12 weeks. Treatment continues, for example, for a total of 12 weeks.
SMILES,conversion of prodrug in skin samples [1],satisfaction with cosmetic appearance (abdominal fat)
CC(C)OC(=O)CCC/C=C\C[C@@H]1[C@@H](CC[C@@H](O)CCc2ccccc2)[C@H](O)C[C@@H]1O [latanoprost],"converted (hydrolyzed) to the active metabolite, latanoprost free acid",more satisfied with their cosmetic appearance
CC(C)OC(=O)CCC/C=C\C[C@@H]1[C@@H](/C=C/C(F)(F)COc2ccccc2)[C@H](O)C[C@@H]1O [tafluprost],–,more satisfied with their cosmetic appearance
